We go through five molecules from US10350203B2, “Multidrug infusion for pain control” (priority 2014, dated 2019).

The subject of data set [1] is pain due to severe spastic right hemiparesis post stroke. The following applies: for pain relief: human, in vivo, iv.
For data set [2] the following is noted: intrathecal, combined with opioids, up to more than 30 mg/day; cited from earlier work.
In data set [3] the test system is spinal tissue or meninges. As to conditions: dog, in vivo, 1 mg/kg; cited from earlier work.
For data set [4], the system named is pain. The following applies: in vivo; cited from earlier work.
The subject of data set [5] is spinal cord. The following applies: in vivo; cited from earlier work.
The subject of data set [6] is hyperalgesia and allodynia. The following applies: rat, in vivo; cited from earlier work.
In data set [7] the test system is gliosis. The following applies: rat, in vivo; cited from earlier work.

For the molecule `NCC(CC(=O)O)c1ccc(Cl)cc1` (stereo not shown) [Baclofen], the pain relief result in data set [1] is on record as “no relief”.

`CCCCN1CCCCC1C(=O)Nc1c(C)cccc1C` (stereo not shown) [bupivacaine]: the “bladder dysfunction or muscle weakness” value in data set [2] is “did not cause bladder dysfunction or muscle weakness”.

Turning to `CNC1(c2ccccc2Cl)CCCCC1=O` (stereo not shown) [ketamine], in data set [3], the “histological alterations of spinal tissue or meninges” value is listed as “no histological alterations”. For the same molecule, the pain relief result in data set [1] is “did not provide any relief”. Moreover, the tolerability entry in data set [1] (intravenous infusions) is listed as “well tolerated”.

Turning to `C=CCN1CC[C@]23c4c5ccc(O)c4O[C@H]2C(=O)CC[C@@]3(O)[C@H]1C5` [naloxone], in data set [4], the “effect on morphine analgesic effect” value is on record as “dramatically enhanced” and the side effects result is given as “without apparent side effects”. Further, in data set [5], the “signs of spinal cord toxicity” value is “have not demonstrated signs of spinal cord toxicity”. In addition, the “effect on antihyperalgesia and antiallodynia effects of morphine” value in data set [6] is listed as “enhanced”.

As for `O=C1CC[C@@]2(O)[C@H]3Cc4ccc(O)c5c4[C@@]2(CCN3CC2CC2)[C@H]1O5` [naltrexone], the gliosis result in data set [7] is “attenuates gliosis”.
